Assay [1] can be described thus: Inhibition of homologous location truncated N-terminal His-tagged Plasmodium falciparum DHODH expressed in Escherichia coli pyrD Sphi6745 by spectrophotometric analysis.
The nature of assay [2]: Selectivity ratio of IC50 for homologous location truncated N-terminal His-tagged human DHODH to IC50 for homologous location truncated N-terminal His-tagged Plasmodium falciparum DHODH.
The target of assay [3] is Dihydroorotate dehydrogenase (quinone), mitochondrial (Homo sapiens, UniProt Q02127). Put plainly: Inhibition of homologous location truncated N-terminal His-tagged human DHODH expressed in Escherichia coli pyrD Sphi6745 by spectrophotometric analysis.
Dihydroorotate dehydrogenase (quinone), mitochondrial, sequence (Q02127 whole entry, the tested form may be a part): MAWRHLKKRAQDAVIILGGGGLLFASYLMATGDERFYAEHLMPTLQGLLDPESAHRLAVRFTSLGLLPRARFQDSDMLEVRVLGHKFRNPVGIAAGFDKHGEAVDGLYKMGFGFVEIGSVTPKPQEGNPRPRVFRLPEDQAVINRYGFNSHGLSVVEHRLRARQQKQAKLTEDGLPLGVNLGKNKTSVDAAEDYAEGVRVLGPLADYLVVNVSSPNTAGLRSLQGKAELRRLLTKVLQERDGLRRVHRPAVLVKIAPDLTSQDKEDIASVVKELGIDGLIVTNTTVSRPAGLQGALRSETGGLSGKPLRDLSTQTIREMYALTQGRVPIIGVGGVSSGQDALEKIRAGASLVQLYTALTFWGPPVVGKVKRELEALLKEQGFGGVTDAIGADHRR

In assay [1], `CCOC(=O)/C(C#N)=C(/C)Nc1ccc2c(c1)c1ccccc1n2CC` had an IC50 of more than 100000 nM.

In assay [1], `CCOC(=O)C(=CNc1ccc2sc3ccccc3c2c1)C(=O)OCC` came in with an IC50 of 160 nM and a Ki of 20 nM. For the molecule `CCOC(=O)/C(C#N)=C\Nc1ccc2c(c1)c1ccccc1n2CC`, in assay [1], the IC50 fell in the range of 280 to 440 nM and the Ki stood at 50 nM. In addition, the Ratio IC50 in assay [2] is 1000. `CCOC(=O)/C(=C\Nc1ccc2sc3ccccc3c2c1)[N+](=O)[O-]` displayed an IC50 in assay [3] of more than 100000 nM. Further, in assay [1], the IC50 amounted to 380 nM and the Ki came out at 150 nM. `CCOC(=O)/C(C#N)=C\Nc1ccc2sc3ccccc3c2c1`: half-maximal inhibition in assay [1] (IC50) was put at 1200 nM. Take `CCOC(=O)C(=CNc1ccc2c(c1)c1ccccc1n2CC)C(=O)OCC`: inhibition in assay [1] was half-maximal at 4400 nM (IC50). Against the preceding molecule, the IC50 is about 3.7-fold higher. Same read-out and setting: to `CCOC(=O)/C(C#N)=C(/C)Nc1ccc2sc3ccccc3c2c1` belongs more than 100000 nM; to `CCn1c2ccccc2c2cc(NC=C3C(=O)OC(C)(C)OC3=O)ccc21`, more than 100000 nM.

Turning to `CCOC(=O)/C(=C/Nc1ccc2c(c1)c1ccccc1n2CC)[N+](=O)[O-]`, the half-inhibitory concentration (IC50) in assay [3] was more than 100000 nM; in assay [1] it was 94 nM. Also, in assay [1], the Ki was determined as 37 nM. The molecule `CC(=O)C(=CNc1ccc2sc3ccccc3c2c1)C(C)=O` gave an IC50 in assay [1] of more than 100000 nM. In turn, `CCn1c2ccccc2c2cc(NC=C(C(C)=O)C(C)=O)ccc21` registered an IC50 in assay [1] of more than 100000 nM. Same read-out and setting: to `CC1(C)OC(=O)C(=CNc2ccc3sc4ccccc4c3c2)C(=O)O1` belongs more than 100000 nM.

Usually IC50 stands for the concentration at which inhibition is half-maximal. Low readings indicate inhibition by little substance, high ones a need for much substance. Usually Ki stands for a measure of affinity in units of concentration, obtained from inhibition or displacement. Higher therefore signals lower affinity.

These data come from ChEMBL document CHEMBL4052731, “Interconvertible geometric isomers of Plasmodium falciparum dihydroorotate dehydrogenase inhibitors exhibit multiple binding modes” (Bioorg Med Chem Lett, 2017).
